Data: paper PMC5938390, “Tachyplesin Causes Membrane Instability That Kills Multidrug-Resistant Bacteria by Inhibiting the 3-Ketoacyl Carrier Protein Reductase FabG” (Frontiers in Microbiology, 2018)
Positions of bridges follow the written chain, without caps; N, C: chain ends. Residues, ends and D or L forms follow the SMILES beside them.

Columns and labels:
[1] = test system: E. coli 513; assay: MIC against clinical isolate; type: cell-based, Escherichia coli
[2] = test system: P. aeruginosa strain 1409; assay: Membrane rupture by propidium iodide staining; type: cell-based, Pseudomonas aeruginosa; conditions: LB medium, 25°C, 1 h, then PI 10 μg/ml 30 min
Experimental: (§1) These studies were carried out as we previously reported with slight modifications and briefly introduced as follows ([Liu et al., 2017]). […] Cytotoxicity in different cell lines was assessed using the Cell Proliferation Kit II (XTT) (Roche), and cytotoxicity in hemocytes was evaluated by the increase in the absorbance at 540 nm after peptide incubation. Membrane rupture was indicated by the entrance of the DNA-binding fluorescent dye PI into MDR clinical isolates of P. aeruginosa strain 1409. Membrane translocation of N-terminal FITC-conjugated tachyplesin III (purity ≥ 95%, synthesized by GL Biochem Co., Ltd, Shanghai, China) into MDR clinical isolates of Acinetobacter baumannii strain 1408 were detected by confocal laser-scanning microscopy.
After centrifugation at 3000 g for 10 min, cells were resuspended in the same volume of PBS (phosphate-buffered saline, 8 g/L NaCl, 0.2 g/L KCl, 1.44 g/L Na2HPO4, 0.24 g/L KH2PO4, pH 7.4). Then, PI was added to a final concentration of 10 μg/ml. After 30 min of incubation at 25°C, the cells were washed three times with PBS and immediately imaged with a fluorescence microscope.

[3] = test system: E. coli 513; assay: Transcriptome analysis (RNA sequencing, FPKM, DESeq); type: cell-based, Escherichia coli; conditions: Ec; Ta 16 μg/ml, 30 min, 37°C
Experimental: The Vitek 32 system (bioMerieux, France) and 16S rDNA sequencing were used to verify the clinical isolates A. baumannii 1408, P. aeruginosa 1409, Klebsiella pneumoniae 5 and E. coli 513, which were grown overnight in Luria-Bertani (LB) medium at 37°C with constant shaking at 220 rpm to reach the middle of their logarithmic growth phase. […] After the addition of 2 volumes of RNAprotect Bacteria Reagent (QIAGEN) to stabilized RNA, samples were vortexed for 5 s, incubated for 5 min at room temperature (15–25°C) and collected by centrifugation at 4°C for 5 min at 4000 g.
RNA isolation and sequencing were performed by Novogene Bioinformatics Technology Co., Ltd. (Beijing, China) as previously described ([Liu B. et al., 2014]). Clean reads were mapped to the corresponding bacterial genomes using Bowtie 2 software ([Langmead and Salzberg, 2012]). Gene expression was calculated using the FPKM (expected number of fragments per kilobase of transcript sequence per millions of base pairs sequenced) method with HTSeq software (union model) ([Anders et al., 2015]). Differentially expressed genes were selected based on the DESeq R package with Padj values < 0.05 ([Anders and Huber, 2010]). KEGG pathway analysis was performed using KOBAS (2.0), and the corrected p value cut-off was set at 0.05 ([Li et al., 2015]).

[4] = target: T1, FabG from S. aureus (Staphylococcus aureus, UniProt P0A0H9); assay: FabG enzyme activity inhibition assay (NADPH consumption, A340); type: biochemical; conditions: higher concentrations (7.5 and 15 μM) of peptide, 6 μM FabG, 5 min, room temperature
T1 construct: His tag (C); made in house; host or cells: E. coli BL21 DE3 (vector pET28a)
T1 sequence (P0A0H9 1-246): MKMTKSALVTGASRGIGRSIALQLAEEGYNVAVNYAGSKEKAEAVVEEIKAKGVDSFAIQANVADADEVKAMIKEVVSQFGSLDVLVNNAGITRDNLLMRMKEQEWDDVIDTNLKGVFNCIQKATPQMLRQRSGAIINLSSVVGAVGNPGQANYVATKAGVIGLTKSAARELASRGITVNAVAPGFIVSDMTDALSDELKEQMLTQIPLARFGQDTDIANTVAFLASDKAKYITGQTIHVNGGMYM
Experimental: A 96-well plate with a final total volume of 200 μl per reaction was used for the FabG inhibition assay. Briefly, tachyplesin III (15, 7.5, and 3.75 μM) was incubated with 1.5 μM FabG from E. coli or 6 μM FabG from S. aureus at room temperature for 5 min, before the addition of 300 μM nicotinamide adenine dinucleotide phosphate (NADPH, Sigma) and then 150 μM acetoacetyl-CoA (Sigma) to initiate the reaction. The decrease in absorbance at 340 nm was recorded over 5 min to reflect the consumption of NADPH.
FIGURE 7 Tachyplesin III binding with FabG inhibits its enzyme activities in vitro, probably by blocking the active site. Binding interactions between tachyplesin III and FabG from E. coli (A) or from S. aureus (E) were analyzed by surface plasmon resonance (SPR) with a Biocore 3000 (Biocore, Piscataway, NJ, United States). Black line: 1.25 μg/mL FabG; green line: 2.5 μg/mL FabG; purple line: 5 μg/mL FabG; and red line: 10 μg/mL FabG. […] Tachyplesin was processed with Chemdraw 11.0 according to the structure of tachyplesin I (PDB code 2RTV) and then docked to the active site of FabG from E. coli (PDB code 1Q7B) or S. aureus (PDB code 3SJ7) with AutoDock4 using the default settings. […] Statistical significance was analyzed by one-way ANOVA followed by the Newman–Keuls multiple-comparisons test, ^∗∗p < 0.01, ^∗p < 0.05.

[5] = test system: A. baumannii 1408; assay: MIC against MDR clinical isolate; type: cell-based, Acinetobacter baumannii
[6] = test system: L929 (mouse fibroblast cell line); conditions: concentration increased from 50 mg/L to 100 mg/L, XTT
Experimental: as §1
(§2) Cytotoxicity of tachyplesin III was tested by hemolysis and cell viability assays. (A) Tachyplesin III dissolved in 0.9% saline was added to mouse erythrocytes that were diluted with the same buffer. After 30 min of incubation at 37°C and then centrifugation at 1000 g for 15 min, supernatants were diluted 1:4 with 0.9% saline, and absorbance at 540 nm was tested. With 1% Triton X-100 (v/v) to determine 100% hemolysis and 0.9% saline as the negative control, the hemolysis rate was calculated as [(Absorbancesample^-Absorbancecontrol)/(Absorbance100%^-Absorbancecontrol)] × 100. Cytotoxicity was assessed using the Cell Proliferation Kit II (XTT) (Roche) for (B) L929 (mouse fibroblast cell line), (C) 293FT (human embryonic kidney cell line) and (D) A549 (adenocarcinomic human alveolar basal epithelial cell line) cells. Absorbance [A492-A690 nm] was used to quantify viable cells.

[7] = test system: A549 (adenocarcinomic human alveolar basal epithelial cell line); conditions: concentration increased from 200 mg/L to 400 mg/L, XTT
Experimental: as §1, §2

[8] = test system: 293FT (human embryonic kidney cell line); conditions: concentration increased from 100 mg/L to 200 mg/L, XTT
Experimental: as §1, §2

CC[C@H](C)[C@@H]1NC(=O)CNC(=O)[C@H](CCCNC(=N)N)NC(=O)[C@H](Cc2ccc(O)cc2)NC(=O)[C@@H]2CSSC[C@H](NC1=O)C(=O)N[C@@H](Cc1ccc(O)cc1)C(=O)N[C@@H](CCCNC(=N)N)C(=O)N[C@@H](CCCCN)C(=O)N[C@H](C(=O)N[C@@H](CCCNC(=N)N)C(N)=O)CSSC[C@H](NC(=O)[C@H](Cc1c[nH]c3ccccc13)NC(=O)[C@@H](N)CCCCN)C(=O)N[C@@H](Cc1ccccc1)C(=O)N[C@@H](CCCNC(=N)N)C(=O)N[C@@H](C(C)C)C(=O)N2 [tachyplesin III] (H-KWCFRVCYRGICYRKCR-NH2; disulfide 3-16, 7-12 (inferred); N-terminus and C-terminus assumed)
16 μg/ml tachyplesin III expressed as multiple of MIC [1]: 4 × MIC | membrane integrity (PI fluorescence) ([2]; 1/4× MIC): slight membrane breakage in a small proportion of the treated bacteria | membrane integrity (PI fluorescence) ([2]; 4× MIC (high concentration)): complete membrane breakage of nearly all of the treated bacteria | Fold change after Ta treatment, gene b1093 (3-ketoacyl-acyl carrier protein reductase) [3]: 1.11 | Fold change after Ta treatment, gene b3846 (3-hydroxyacyl-CoA dehydrogenase) [3]: 2.3 | FabG activity [4]: almost completely blocked | 16 μg/ml tachyplesin III expressed as multiple of MIC [5]: 1 × MIC | cell viability [6]: declined sharply | cell viability [7]: Dramatic decreases in viability | cell viability [8]: Dramatic decreases in viability
